The target of one assay is human NK1 receptor (Homo sapiens, UniProt P25103). In words: NK1 receptor binding, [3H]substance P displacement, CHO cell membranes. As to conditions: first value of the cell pKi NK1/NK3; human NK1 receptor, [3H]substance P.
For assay [1], the target named is T1, Recombinant human NK3 (hNK3) receptor (Homo sapiens, UniProt P29371).
T1 construct: expressed in transfected cells
T1 sequence (P29371 1-465): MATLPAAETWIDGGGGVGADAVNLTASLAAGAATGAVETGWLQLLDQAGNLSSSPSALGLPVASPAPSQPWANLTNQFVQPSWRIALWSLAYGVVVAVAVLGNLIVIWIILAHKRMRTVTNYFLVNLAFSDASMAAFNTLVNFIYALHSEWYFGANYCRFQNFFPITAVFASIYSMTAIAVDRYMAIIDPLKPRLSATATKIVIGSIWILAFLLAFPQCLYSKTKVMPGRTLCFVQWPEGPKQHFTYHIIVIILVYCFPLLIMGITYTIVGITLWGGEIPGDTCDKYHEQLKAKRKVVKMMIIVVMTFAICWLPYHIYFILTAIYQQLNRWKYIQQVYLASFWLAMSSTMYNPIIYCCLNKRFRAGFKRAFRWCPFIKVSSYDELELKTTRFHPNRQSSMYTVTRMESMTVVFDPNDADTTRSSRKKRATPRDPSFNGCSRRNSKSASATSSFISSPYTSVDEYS
In words: NK3 receptor binding, [3H]SR142801 displacement, membrane preparations. The following applies: second value of the cell pKi NK1/NK3; hNK3 receptor, [3H]SR142801. As to the method:
Non specific binding was determined using 10 μM SB222200. Assay buffer consisted of Tris-HCl (50 mM, pH 7.4), BSA (0.1%), MnCl2 (4 mM) and phosphoramidon (1 μM). Membrane preparations of hNK3 receptors (approximately 2.5 μg/well in a 96 well plate) were used to initiate the incubation for 90 min at room temperature. This assay was terminated by rapid filtration under vacuum through GF/C filters, presoaked for 90 min with PEI (0.3%), with 3×0.5 ml washes of ice-cold Tris buffer (50 mM, pH 7.4) containing 0.1% BSA. The radioactivity retained on the filters was measured by scintillation counting. All assays were performed in duplicate in at least two separate experiments.

The values that follow come from patent US8404708B2, “Dual NK1/NK3 receptor antagonists” (Hoffmann-La Roche Inc., priority 2004, dated 2013).

Sequence of human NK1 receptor (P25103 whole entry): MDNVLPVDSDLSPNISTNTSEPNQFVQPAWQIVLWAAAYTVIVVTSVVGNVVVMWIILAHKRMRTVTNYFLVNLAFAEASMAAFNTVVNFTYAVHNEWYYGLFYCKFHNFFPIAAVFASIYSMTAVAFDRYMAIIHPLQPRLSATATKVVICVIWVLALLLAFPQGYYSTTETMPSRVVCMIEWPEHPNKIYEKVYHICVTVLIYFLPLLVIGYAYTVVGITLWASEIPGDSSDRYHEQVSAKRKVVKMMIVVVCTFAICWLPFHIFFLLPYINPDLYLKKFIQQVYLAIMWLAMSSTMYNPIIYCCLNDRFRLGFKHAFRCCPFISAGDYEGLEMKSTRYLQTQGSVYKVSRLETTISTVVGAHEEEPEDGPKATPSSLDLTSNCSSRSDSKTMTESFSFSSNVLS

In general, Ki refers to the dissociation constant of the complex between target and ligand, obtained from inhibition or displacement. `CN(C(=O)C(C)(C)c1cc(F)cc(F)c1)c1cnc(N2C[C@H](O)C[C@H]2CO)cc1-c1ccccc1Cl` [Example 6, (2S,4R)-N-[4-(2-Chloro-phenyl)-6-(4-hydroxy-2-hydroxymethyl-pyrrolidin-1-yl)-pyridin-3-yl]-2-(3,5-difluoro-phenyl)-N-methyl-isobutyramide]: the Ki is 7.24 nM on human NK1 receptor and 4.9 nM in assay [1].
Turning to `COc1cc(Cl)cc(C(C)(C)C(=O)N(C)c2cnc(N3CCC[C@H]3CO)cc2-c2ccccc2Cl)c1` [Example 7, (S)-2-(3-Chloro-5-methoxy-phenyl)-N-[4-(2-chloro-phenyl)-6-(2-hydroxymethyl-pyrrolidin-1-yl)-pyridin-3-yl]-N-methyl-isobutyramide], the Ki on human NK1 receptor is 4.79 nM; in assay [1] it was 1.78 nM.
For `COc1cc(Cl)cc(C(C)(C)C(=O)N(C)c2cnc(N3C[C@H](O)C[C@H]3CO)cc2-c2ccccc2Cl)c1` [Example 8, (2S,4R)-2-(3-Chloro-5-methoxy-phenyl)-N-[4-(2-chloro-phenyl)-6-(4-hydroxy-2-hydroxymethyl-pyrrolidin-1-yl)-pyridin-3-yl]-N-methyl-isobutyramide], the Ki is 1.7 nM on human NK1 receptor and 1.26 nM in assay [1].
For `Cc1cc(C)cc(C(C)(C)C(=O)N(C)c2cnc(N3CCC[C@H]3CO)cc2-c2ccccc2Cl)c1` [Example 9, (S)-N-[4-(2-Chloro-phenyl)-6-(2-hydroxymethyl-pyrrolidin-1-yl)-pyridin-3-yl]-2-(3,5-dimethyl-phenyl)-N-methyl-isobutyramide], the results for the inhibition constant Ki (on human NK1 receptor; in assay [1]) were 6.46 nM and 3.63 nM, respectively.
`Cc1cc(C)cc(C(C)(C)C(=O)N(C)c2cnc(N3C[C@H](O)C[C@H]3CO)cc2-c2ccccc2Cl)c1` [Example 10, (2S,4R)-N-[4-(2-Chloro-phenyl)-6-(4-hydroxy-2-hydroxymethyl-pyrrolidin-1-yl)-pyridin-3-yl]-2-(3,5-dimethyl-phenyl)-N-methyl-isobutyramide]: the results for the Ki (at human NK1 receptor; in assay [1]) were 2.14 nM and 3.63 nM, respectively.
On the same counts, the results for `Cc1ccccc1-c1cc(N2CCC[C@H]2CO)ncc1N(C)C(=O)C(C)(C)c1cc(Cl)cc(Cl)c1` [Example 11, (S)-2-(3,5-Dichloro-phenyl)-N-[6-(2-hydroxymethyl-pyrrolidin-1-yl)-4-o-tolyl-pyridin-3-yl]-N-methyl-isobutyramide] are 1.78 nM and 1.1 nM.
As to `Cc1ccccc1-c1cc(N2C[C@H](O)C[C@H]2CO)ncc1N(C)C(=O)C(C)(C)c1cc(Cl)cc(Cl)c1` [Example 12, (2S,4R)-2-(3,5-Dichloro-phenyl)-N-[6-(4-hydroxy-2-hydroxymethyl-pyrrolidin-1-yl)-4-o-tolyl-pyridin-3-yl]-N-methyl-isobutyramide], the inhibition constant Ki on human NK1 receptor was 1.12 nM; in assay [1] it was 1.38 nM.
As to `Cc1ccccc1-c1cc(N2CCC[C@H]2CO)ncc1N(C)C(=O)C(C)(C)c1cc(F)cc(C(F)(F)F)c1` [Example 13, (S)-2-(3-Fluoro-5-trifluoromethyl-phenyl)-N-[6-(2-hydroxymethyl-pyrrolidin-1-yl)-4-o-tolyl-pyridin-3-yl]-N-methyl-isobutyramide], the figures for the Ki (on human NK1 receptor; in assay [1]) were 2.19 nM and 1.55 nM, respectively.
For `Cc1ccccc1-c1cc(N2CCC[C@H]2CO)ncc1N(C)C(=O)C(C)(C)c1cc(F)cc(F)c1` [Example 15, (S)-2-(3,5-Difluoro-phenyl)-N-[6-(2-hydroxymethyl-pyrrolidin-1-yl)-4-o-tolyl-pyridin-3-yl]-N-methyl-isobutyramide], the values for the Ki (on human NK1 receptor; in assay [1]) were 6.31 nM and 4.47 nM, respectively.
On the same counts, the results for `Cc1ccccc1-c1cc(N2C[C@H](O)C[C@H]2CO)ncc1N(C)C(=O)C(C)(C)c1cc(F)cc(F)c1` [Example 16, (2S,4R)-2-(3,5-Difluoro-phenyl)-N-[6-(4-hydroxy-2-hydroxymethyl-pyrrolidin-1-yl)-4-o-tolyl-pyridin-3-yl]-N-methyl-isobutyramide] are 2.63 nM and 4.07 nM.
On the same counts, the results for `COc1cc(Cl)cc(C(C)(C)C(=O)N(C)c2cnc(N3CCC[C@H]3CO)cc2-c2ccccc2C)c1` [Example 17, (S)-2-(3-Chloro-5-methoxy-phenyl)-N-[6-(2-hydroxymethyl-pyrrolidin-1-yl)-4-o-tolyl-pyridin-3-yl]-N-methyl-isobutyramide] are 3.89 nM and 3.16 nM.
On to `COc1cc(Cl)cc(C(C)(C)C(=O)N(C)c2cnc(N3C[C@H](O)C[C@H]3CO)cc2-c2ccccc2C)c1` [Example 18, (2S,4R)-2-(3-Chloro-5-methoxy-phenyl)-N-[6-(4-hydroxy-2-hydroxymethyl-pyrrolidin-1-yl)-4-o-tolyl-pyridin-3-yl]-N-methyl-isobutyramide], for which the figures for the Ki (on human NK1 receptor; in assay [1]) were 1.17 nM and 2.51 nM, respectively.
On the same counts, the results for `Cc1cc(C)cc(C(C)(C)C(=O)N(C)c2cnc(N3CCC[C@H]3CO)cc2-c2ccccc2C)c1` [Example 19, (S)-2-(3,5-Dimethyl-phenyl)-N-[6-(2-hydroxymethyl-pyrrolidin-1-yl)-4-o-tolyl-pyridin-3-yl]-N-methyl-isobutyramide] are 2.95 nM and 5.13 nM.
As to `Cc1cc(C)cc(C(C)(C)C(=O)N(C)c2cnc(N3C[C@H](O)C[C@H]3CO)cc2-c2ccccc2C)c1` [Example 20, (2S,4R)-2-(3,5-Dimethyl-phenyl)-N-[6-(4-hydroxy-2-hydroxymethyl-pyrrolidin-1-yl)-4-o-tolyl-pyridin-3-yl]-N-methyl-isobutyramide], the inhibition constant Ki is 1.15 nM at human NK1 receptor and 6.17 nM in assay [1].
As for `Cc1cc(F)ccc1-c1cc(NCCO)ncc1N(C)C(=O)C(C)(C)c1cc(Cl)cc(Cl)c1` [Example 21, 2-(3,5-Dichloro-phenyl)-N-[4-(4-fluoro-2-methyl-phenyl)-6-(2-hydroxy-ethylamino)-pyridin-3-yl]-N-methyl-isobutyramide], the Ki was 1.29 nM on human NK1 receptor and 8.71 nM in assay [1].
Regarding `Cc1cc(F)ccc1-c1cc(N2CCC[C@H]2CO)ncc1N(C)C(=O)C(C)(C)c1cc(Cl)cc(Cl)c1` [Example 22, (S)-2-(3,5-Dichloro-phenyl)-N-[4-(4-fluoro-2-methyl-phenyl)-6-(2-hydroxymethyl-pyrrolidin-1-yl)-pyridin-3-yl]-N-methyl-isobutyramide], the figures for the Ki (on human NK1 receptor; in assay [1]) were 5.13 nM and 1.17 nM, respectively.
On the same counts, the results for `Cc1cc(F)ccc1-c1cc(N2C[C@H](O)C[C@H]2CO)ncc1N(C)C(=O)C(C)(C)c1cc(Cl)cc(Cl)c1` [Example 23, (2S,4R)-2-(3,5-Dichloro-phenyl)-N-[4-(4-fluoro-2-methyl-phenyl)-6-(4-hydroxy-2-hydroxymethyl-pyrrolidin-1-yl)-pyridin-3-yl]-N-methyl-isobutyramide] are 0.891 nM and 1.58 nM.
Take `Cc1cc(F)ccc1-c1cc(N2CCC[C@H]2CO)ncc1N(C)C(=O)C(C)(C)c1cc(F)cc(C(F)(F)F)c1` [Example 24, (S)-N-[4-(4-Fluoro-2-methyl-phenyl)-6-(2-hydroxymethyl-pyrrolidin-1-yl)-pyridin-3-yl]-2-(3-fluoro-5-trifluoromethyl-phenyl)-N-methyl-isobutyramide]: the Ki at human NK1 receptor is 1.32 nM; in assay [1] it was 0.891 nM.
On the same counts, the results for `Cc1cc(F)ccc1-c1cc(N2C[C@H](O)C[C@H]2CO)ncc1N(C)C(=O)C(C)(C)c1cc(F)cc(C(F)(F)F)c1` [Example 25, (2S,4R)-N-[4-(4-Fluoro-2-methyl-phenyl)-6-(4-hydroxy-2-hydroxymethyl-pyrrolidin-1-yl)-pyridin-3-yl]-2-(3-fluoro-5-trifluoromethyl-phenyl)-N-methyl-isobutyramide] are 0.933 nM and 1.74 nM.
For the compound `Cc1cc(F)ccc1-c1cc(N2CCC[C@H]2CO)ncc1N(C)C(=O)C(C)(C)c1cccc(C(F)(F)F)c1` [Example 26, (S)-N-[4-(4-Fluoro-2-methyl-phenyl)-6-(2-hydroxymethyl-pyrrolidin-1-yl)-pyridin-3-yl]-N-methyl-2-(3-trifluoromethyl-phenyl)-isobutyramide], the Ki at human NK1 receptor was 3.02 nM; in assay [1], 5.75 nM.
As to `Cc1cc(F)ccc1-c1cc(N2C[C@H](O)C[C@H]2CO)ncc1N(C)C(=O)C(C)(C)c1cccc(C(F)(F)F)c1` [Example 27, (2S,4R)-N-[4-(4-Fluoro-2-methyl-phenyl)-6-(4-hydroxy-2-hydroxymethyl-pyrrolidin-1-yl)-pyridin-3-yl]-N-methyl-2-(3-trifluoromethyl-phenyl)-isobutyramide], the values for the Ki (at human NK1 receptor; in assay [1]) were 1.51 nM and 10.7 nM, respectively.
On the same counts, the results for `Cc1cc(F)ccc1-c1cc(N2CCC[C@H]2CO)ncc1N(C)C(=O)C(C)(C)c1cc(F)cc(F)c1` [Example 28, (S)-2-(3,5-Difluoro-phenyl)-N-[4-(4-fluoro-2-methyl-phenyl)-6-(2-hydroxymethyl-pyrrolidin-1-yl)-pyridin-3-yl]-N-methyl-isobutyramide] are 2.82 nM and 3.98 nM.
